Legend:
[1] = Hydrolytic degradation in acidic aqueous buffer; format: physicochemical; details: kept for 6 to 18 hours in an aqueous buffer solution having a pH value between 3 and 4
Description: Antibiotics GE37468B and GE37468C seem to derive from antibiotic GE37468A via hydrolytic degradation. […] The physico-chemical characteristics of these two products are as follows: […]

[2] = system: gram positive bacteria and gram positive as well as gram negative anaerobes; assay: Minimal inhibitory concentrations (MIC) by broth microdilution, in vitro antimicrobial activity; format: cell-based; details: summary in words of the in vitro spectrum; the MIC values of Table IV are printed only as an image
[3] = system: Staphylococcus aureus Smith; assay: Experimental septicemia in mice; format: in vivo, CD1 mice; details: iv, 168 h, mice infected intraperitoneally with 10^6 CFU/mouse S. aureus Smith, compound given intravenously once immediately after infection, Spearman and Kaerber method from survival at day 7
Protocol: The antimicrobial activity of antibiotic GE37468A was also confirmed in experimental septicemia in mice.
Groups of five CD1 mice of both sexes (Charles River, average weight 18-22 g) were infected intraperitoneally with 10^6 CFU/mouse of Staphylococcus aureus Smith suspended in 0.5 ml of 5% bacteriological mucin (Difco). The test compound was administered intravenously once, immediately after infection, in a sterile solution containing 10% dimethylsulfoxide, 10% Cremophor EL®, 20% 0.07 M phosphate buffer (pH 8), 60% glucose solution (5%).

| SMILES | stability in aqueous buffer solution (hydrolytic degradation) [1] | antimicrobial activity [2] | ED50 [3] |
| --- | --- | --- | --- |
| C=C(NC(=O)C(=C)NC(=O)c1csc(-c2ccc3c(n2)-c2csc(n2)-c2csc(n2)C2C(C)CC(O)N2C(=O)C(Cc2ccc(O)cc2)NC(=O)C2CSC(=N2)C(Cc2ccccc2)NC(=O)c2csc(n2)C(CC(N)=O)NC(=O)c2nc-3oc2C)n1)C(=O)O (centres unmarked) [GE37468A] | yields substantial amounts of both antibiotic GE37468B and GE37468C | mainly active against gram positive bacteria and gram positive as well as gram negative anaerobes | 3.2 mg/kg |
| Cc1oc2nc1C(=O)NC(CC(N)=O)c1nc(cs1)C(=O)NC(Cc1ccccc1)C1=NC(CS1)C(=O)NC(Cc1ccc(O)cc1)C(=O)N1C(O)CC(C)C1c1nc(cs1)-c1nc(cs1)-c1nc(-c3nc(C(N)=O)cs3)ccc1-2 (centres unmarked) [GE37468B] |  | mainly active against gram positive bacteria and gram positive as well as gram negative anaerobes |  |
| C=C(NC(=O)c1csc(-c2ccc3c(n2)-c2csc(n2)-c2csc(n2)C2C(C)CC(O)N2C(=O)C(Cc2ccc(O)cc2)NC(=O)C2CSC(=N2)C(Cc2ccccc2)NC(=O)c2csc(n2)C(CC(N)=O)NC(=O)c2nc-3oc2C)n1)C(N)=O (centres unmarked) [GE37468C] |  | mainly active against gram positive bacteria and gram positive as well as gram negative anaerobes |  |
